Reference: ChEMBL document CHEMBL4219149, “Design and synthesis of triple inhibitors of janus kinase (JAK), histone deacetylase (HDAC) and Heat Shock Protein 90 (HSP90)” (Bioorg Med Chem Lett, 2018)
pIC50: −log10 of the molar value.

Legend:
Heat shock protein HSP90 = Heat shock protein HSP90 (Homo sapiens, UniProt P07900+P08238); assay: Inhibition of geldanamycin-based probe binding to HSP90 (unknown origin) by fluorescence polarization assay; type: protein assay
Histone deacetylase 1 = Histone deacetylase 1 (Homo sapiens, UniProt Q13547); assay: Inhibition of HDAC1 (unknown origin) using Arg-His-Lys-Lys(Ac) as substrate after 2 hrs by fluorescence analysis
[1] = biological target: T1, Protein deacetylase HDAC6 (Homo sapiens, UniProt Q9UBN7); assay: Inhibition of HDAC6 (unknown origin) using Arg-His-Lys-Lys(Ac) as substrate after 2 hrs by fluorescence analysis
T1 sequence (Q9UBN7 whole entry): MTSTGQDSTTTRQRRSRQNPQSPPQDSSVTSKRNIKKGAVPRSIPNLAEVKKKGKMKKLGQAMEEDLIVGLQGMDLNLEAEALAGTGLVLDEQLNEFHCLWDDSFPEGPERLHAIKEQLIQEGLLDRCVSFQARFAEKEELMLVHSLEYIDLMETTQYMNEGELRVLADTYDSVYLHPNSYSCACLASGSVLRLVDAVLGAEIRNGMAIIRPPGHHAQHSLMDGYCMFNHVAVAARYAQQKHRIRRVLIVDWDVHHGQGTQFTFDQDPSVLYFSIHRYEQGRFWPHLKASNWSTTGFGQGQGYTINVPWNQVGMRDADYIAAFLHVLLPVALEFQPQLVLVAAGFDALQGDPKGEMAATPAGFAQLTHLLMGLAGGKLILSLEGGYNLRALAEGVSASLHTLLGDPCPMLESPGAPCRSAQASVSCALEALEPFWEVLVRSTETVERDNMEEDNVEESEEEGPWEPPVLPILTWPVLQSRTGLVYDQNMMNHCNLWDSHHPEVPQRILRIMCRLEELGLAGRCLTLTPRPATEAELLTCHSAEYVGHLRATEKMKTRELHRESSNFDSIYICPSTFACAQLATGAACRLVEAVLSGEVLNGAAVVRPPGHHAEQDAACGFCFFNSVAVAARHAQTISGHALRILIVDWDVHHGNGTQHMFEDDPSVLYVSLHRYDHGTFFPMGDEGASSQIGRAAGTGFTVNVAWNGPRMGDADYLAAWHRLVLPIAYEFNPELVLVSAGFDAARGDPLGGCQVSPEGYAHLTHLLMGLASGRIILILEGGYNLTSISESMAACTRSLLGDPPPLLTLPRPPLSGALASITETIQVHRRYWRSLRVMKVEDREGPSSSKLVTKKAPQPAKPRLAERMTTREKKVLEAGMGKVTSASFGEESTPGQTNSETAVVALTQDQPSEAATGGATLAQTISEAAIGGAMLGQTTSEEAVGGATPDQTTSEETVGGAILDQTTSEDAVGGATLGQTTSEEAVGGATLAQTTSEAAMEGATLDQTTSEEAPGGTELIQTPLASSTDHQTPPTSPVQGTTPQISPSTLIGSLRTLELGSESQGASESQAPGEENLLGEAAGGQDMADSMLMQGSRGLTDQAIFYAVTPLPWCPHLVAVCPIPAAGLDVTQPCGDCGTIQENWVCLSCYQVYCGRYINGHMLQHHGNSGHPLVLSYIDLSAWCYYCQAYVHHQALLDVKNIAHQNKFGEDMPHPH

[2] = biological target: Heat shock protein HSP 90-alpha (Homo sapiens, UniProt P07900); assay: Inhibition of HSP90alpha (unknown origin)
[3] = biological target: Tyrosine-protein kinase JAK2 (Homo sapiens, UniProt O60674); assay: Inhibition of human JAK2 using poly[Glu:Tyr] (4:1) as substrate in presence of [gamma33P]-ATP
Sequence of Tyrosine-protein kinase JAK2 (O60674 whole entry): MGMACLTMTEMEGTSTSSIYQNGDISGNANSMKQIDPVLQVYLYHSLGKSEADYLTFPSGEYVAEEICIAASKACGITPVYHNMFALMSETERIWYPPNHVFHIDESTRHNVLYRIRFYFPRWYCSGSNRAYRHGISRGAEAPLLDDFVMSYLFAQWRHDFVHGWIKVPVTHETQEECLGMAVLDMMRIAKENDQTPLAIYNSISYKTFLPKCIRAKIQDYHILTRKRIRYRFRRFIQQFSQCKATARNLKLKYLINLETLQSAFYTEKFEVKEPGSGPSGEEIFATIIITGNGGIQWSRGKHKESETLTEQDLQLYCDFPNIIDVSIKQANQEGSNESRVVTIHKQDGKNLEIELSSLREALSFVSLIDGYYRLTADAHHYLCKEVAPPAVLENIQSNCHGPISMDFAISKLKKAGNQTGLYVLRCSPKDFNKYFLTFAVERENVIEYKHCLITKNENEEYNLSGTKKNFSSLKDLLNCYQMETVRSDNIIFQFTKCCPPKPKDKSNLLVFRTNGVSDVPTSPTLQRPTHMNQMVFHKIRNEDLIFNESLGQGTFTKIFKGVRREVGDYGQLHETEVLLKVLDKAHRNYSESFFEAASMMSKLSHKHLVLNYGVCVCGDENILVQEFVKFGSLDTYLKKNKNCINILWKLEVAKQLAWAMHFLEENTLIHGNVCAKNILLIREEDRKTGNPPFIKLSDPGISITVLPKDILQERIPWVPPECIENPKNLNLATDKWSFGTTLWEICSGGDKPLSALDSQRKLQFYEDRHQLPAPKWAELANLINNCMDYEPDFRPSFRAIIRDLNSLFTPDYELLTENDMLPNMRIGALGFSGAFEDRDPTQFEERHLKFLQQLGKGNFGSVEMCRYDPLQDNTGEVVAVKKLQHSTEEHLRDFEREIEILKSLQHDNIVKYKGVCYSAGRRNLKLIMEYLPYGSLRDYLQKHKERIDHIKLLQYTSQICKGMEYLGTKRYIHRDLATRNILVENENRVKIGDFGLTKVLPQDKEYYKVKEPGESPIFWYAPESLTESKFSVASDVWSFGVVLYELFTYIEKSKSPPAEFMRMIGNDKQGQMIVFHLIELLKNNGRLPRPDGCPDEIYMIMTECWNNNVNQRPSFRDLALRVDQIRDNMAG

Sequence of Histone deacetylase 1 (Q13547 whole entry): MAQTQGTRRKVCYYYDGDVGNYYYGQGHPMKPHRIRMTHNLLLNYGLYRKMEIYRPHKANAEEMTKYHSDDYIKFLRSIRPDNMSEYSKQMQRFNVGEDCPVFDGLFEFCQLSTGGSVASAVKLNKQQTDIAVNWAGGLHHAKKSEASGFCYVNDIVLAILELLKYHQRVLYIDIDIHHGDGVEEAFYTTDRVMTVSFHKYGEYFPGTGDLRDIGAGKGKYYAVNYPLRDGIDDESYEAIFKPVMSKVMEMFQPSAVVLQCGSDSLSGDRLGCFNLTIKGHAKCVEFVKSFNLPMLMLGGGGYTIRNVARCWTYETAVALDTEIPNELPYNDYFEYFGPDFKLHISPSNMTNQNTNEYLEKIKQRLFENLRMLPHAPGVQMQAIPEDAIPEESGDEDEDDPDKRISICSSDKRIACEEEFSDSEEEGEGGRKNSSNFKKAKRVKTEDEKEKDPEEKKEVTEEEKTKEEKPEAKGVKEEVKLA

Row | IC50 (Heat shock protein HSP90) | pIC50 (Histone deacetylase 1) | pIC50 [1] | pIC50 [2] | pIC50 [3] | Structure (SMILES)
1 | > 10 µM | – | – | – | – | CCNC(=O)c1cc2c(-c3cccc(OCCCCCn4cc(-c5ncnc6[nH]ccc56)cn4)c3)nc(N)nc2s1
2 | – | < 4.00 | 5.20 | 4.69 | – | CCNC(=O)c1cc2c(-c3cc(OCCCCCCn4cc(-c5nc(Nc6ccc(NC(=O)CCCCCCC(=O)O)cc6)nc6[nH]ccc56)cn4)c(Cl)cc3Cl)nc(N)nc2s1
3 | 0.11 µM | – | – | – | 5.77 | CCNC(=O)c1cc2c(-c3cc(OCCCCCCn4cc(-c5ncnc6[nH]ccc56)cn4)c(Cl)cc3Cl)nc(N)nc2s1
4 | – | < 4.00 | 5.55 | < 4.00 | 4.85 | CCNC(=O)c1cc2c(-c3cc(OCCCCCCn4cc(-c5nc(Nc6ccc(NC(=O)CCCCCCC(=O)NO)cc6)nc6[nH]ccc56)cn4)c(Cl)cc3Cl)nc(N)nc2s1
5 | > 10 µM | – | – | – | < 5.00 | CCNC(=O)c1cc2c(-c3cccc(OCCCCn4cc(-c5ncnc6[nH]ccc56)cn4)c3)nc(N)nc2s1
6 | 0.4 µM | – | – | – | 5.46 | CCNC(=O)c1cc2c(-c3cc(OCCCCCn4cc(-c5ncnc6[nH]ccc56)cn4)c(Cl)cc3Cl)nc(N)nc2s1
7 | > 10 µM | – | – | – | – | CCNC(=O)c1cc2c(-c3cccc(OCCCCCCn4cc(-c5ncnc6[nH]ccc56)cn4)c3)nc(N)nc2s1
8 | – | 5.61 | 8.10 | < 4.00 | < 4.00 | CCNC(=O)c1cc2c(-c3cccc(OCCCCCCOc4ccc(Nc5nc(-c6cnn(CCCCCCC(=O)NO)c6)c6cc[nH]c6n5)cc4)c3)nc(N)nc2s1
